From patent US5736380A, “Maltose-trehalose converting enzyme, and preparation and uses thereof” (Kabushiki Kaisha Hayashibara Seibutsu Kagaku Kenkyujo, priority 1993, dated 1998)
“Also recorded” adds a separate entry of the source. Counter-ions that a name gives are not always drawn.

Tests used:
[1] = target: T1, maltose-trehalose converting enzyme derived from Pimelobacter sp. R48 (Pimelobacter sp., UniProt P72235); test: Inhibition of enzyme activity; assay type: biochemical; conditions: one mM Cu^++ or Hg^++, 50 mM Tris-HCl buffer
T1 construct: The culture obtained in Experiment 1 was centrifuged to obtain an about 0.5 kg wet cells; endogenous in cells; host or cells: Pimelobacter sp; R48 (FERM BP-4315), enzyme purified from the disrupted wild-type cells
T1 sequence (P72235 1-573): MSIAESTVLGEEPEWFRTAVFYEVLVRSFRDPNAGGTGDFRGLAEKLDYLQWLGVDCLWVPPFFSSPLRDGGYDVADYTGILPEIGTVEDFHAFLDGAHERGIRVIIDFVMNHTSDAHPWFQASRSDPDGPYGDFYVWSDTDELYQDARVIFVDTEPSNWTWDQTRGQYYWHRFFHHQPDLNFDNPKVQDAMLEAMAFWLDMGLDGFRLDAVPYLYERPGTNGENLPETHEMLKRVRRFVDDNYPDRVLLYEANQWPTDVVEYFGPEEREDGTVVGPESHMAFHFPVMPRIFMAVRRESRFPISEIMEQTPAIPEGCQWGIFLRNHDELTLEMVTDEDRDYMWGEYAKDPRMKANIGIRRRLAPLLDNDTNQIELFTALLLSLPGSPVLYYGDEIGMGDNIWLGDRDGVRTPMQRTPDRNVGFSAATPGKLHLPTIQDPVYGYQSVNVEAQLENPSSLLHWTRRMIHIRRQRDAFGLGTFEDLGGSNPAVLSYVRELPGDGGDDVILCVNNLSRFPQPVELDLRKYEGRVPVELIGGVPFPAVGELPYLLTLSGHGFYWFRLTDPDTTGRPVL
Description: (§1) The activity of the present maltose-trehalose converting enzyme is assayed as follows: One ml of an enzyme solution is added to one ml of 20 w/v % maltose as a substrate in 10 mM phosphate buffer (pH 7.0), and the mixture solution is incubated at 25° C., 35° C. or 60° C. for 60 min, followed by the heating the solution at 100° C. for 10 min to suspend the enzymatic reaction. To the resultant reaction mixture is precisely diluted by 11-fold with 50 mM phosphate buffer (pH 7.5), and 0.4 ml of the diluted solution is admixed with 0.1 ml of a trehalase solution having one unit/ml of trehalase. The resultant solution is incubated at 45° C. for 120 min, followed by determining the amount of glucose by the glucose-oxidase method. As a control, by using trehalase and an enzyme solution, which were preheated at 100° C. for 10 min to inactivate the enzyme, the activity of the enzyme solution is assayed similarly as above. With the above assay, the content of trehalose, formed by the present maltose-trehalose converting enzyme, is determined based on the amount of glucose formed, and one unit activity of the enzyme is defined as the amount of enzyme which forms one μmole of trehalose per minute. As regards to the reaction temperature, it is set to 25° C. for the enzyme of a microorganism of the genus Pimelobacter; 35° C. for that of the genus Pseudomonas; and 60° C. for that of the genus Thermus.
Effects of temperature and pH on the activity of the present enzyme were studied in accordance with the method as used for assaying the enzyme activity. […] The thermal stability of the enzyme was determined by incubating it in 50 mM phosphate buffers (pH 7.0) in test tubes at different temperatures for 60 min, cooling the test tubes with cold water, and assaying the residual enzyme activity in each buffer. The pH stability of the enzyme was determined by incubating it in 50 mM phosphate buffers having different pHs at 20° C. for 60 min, adjusting the buffers to pH 7.0, and assaying the residual enzyme activity in each buffer.

[2] = target: maltose-trehalose converting enzyme derived from Pseudomonas putida H262 (Pseudomonas putida, UniProt Q88FN0); test: Inhibition of enzyme activity; assay type: biochemical; conditions: one mM Cu^++ or Hg^++, 50 mM Tris-HCl buffer
Description: as §1, with “The resultant solution is incubated at 45° C. for 120 min, followed by determining the amount of glucose by the glucose-oxidase method.” left out, “With the above assay, the content of trehalose, formed by the present maltose-trehalose converting enzyme, is determined based on the amount of glucose formed, and one unit activity of the enzyme is defined as the amount of enzyme which forms one μmole of trehalose per minute.” left out
Effects of temperature and pH on the activity of the present enzyme were studied in accordance with the method as used for assaying the enzyme activity. The results were respectively shown in FIG. 5 (effect of temperature) and FIG. 6 (effect of pH). The optimum temperature of the enzyme was about […] when incubated at pH 7.0 for 60 min and the optimum pH was about 7.3-8.3 when incubated at 35° C. for 60 min. The thermal stability of the enzyme was determined by incubating it in containers with 50 mM phosphate buffers (pH 7.0) at different temperatures for 60 min, cooling the resultant buffers in the containers with cold water, and assaying the residual enzyme activity in each buffer. The pH stability of the enzyme was determined by incubating it in 50 mM phosphate buffers having different pHs at 35° C. for 60 min, adjusting the resultant buffers to pH 7.0, and assaying the residual enzyme activity in each buffer. The enzyme was stable up to a temperature of about 40° C. and stable at a pH of about 6.0-9.5. […]

maltose-trehalose converting enzyme derived from Pseudomonas putida H262, sequence (Q88FN0 entry or part of it): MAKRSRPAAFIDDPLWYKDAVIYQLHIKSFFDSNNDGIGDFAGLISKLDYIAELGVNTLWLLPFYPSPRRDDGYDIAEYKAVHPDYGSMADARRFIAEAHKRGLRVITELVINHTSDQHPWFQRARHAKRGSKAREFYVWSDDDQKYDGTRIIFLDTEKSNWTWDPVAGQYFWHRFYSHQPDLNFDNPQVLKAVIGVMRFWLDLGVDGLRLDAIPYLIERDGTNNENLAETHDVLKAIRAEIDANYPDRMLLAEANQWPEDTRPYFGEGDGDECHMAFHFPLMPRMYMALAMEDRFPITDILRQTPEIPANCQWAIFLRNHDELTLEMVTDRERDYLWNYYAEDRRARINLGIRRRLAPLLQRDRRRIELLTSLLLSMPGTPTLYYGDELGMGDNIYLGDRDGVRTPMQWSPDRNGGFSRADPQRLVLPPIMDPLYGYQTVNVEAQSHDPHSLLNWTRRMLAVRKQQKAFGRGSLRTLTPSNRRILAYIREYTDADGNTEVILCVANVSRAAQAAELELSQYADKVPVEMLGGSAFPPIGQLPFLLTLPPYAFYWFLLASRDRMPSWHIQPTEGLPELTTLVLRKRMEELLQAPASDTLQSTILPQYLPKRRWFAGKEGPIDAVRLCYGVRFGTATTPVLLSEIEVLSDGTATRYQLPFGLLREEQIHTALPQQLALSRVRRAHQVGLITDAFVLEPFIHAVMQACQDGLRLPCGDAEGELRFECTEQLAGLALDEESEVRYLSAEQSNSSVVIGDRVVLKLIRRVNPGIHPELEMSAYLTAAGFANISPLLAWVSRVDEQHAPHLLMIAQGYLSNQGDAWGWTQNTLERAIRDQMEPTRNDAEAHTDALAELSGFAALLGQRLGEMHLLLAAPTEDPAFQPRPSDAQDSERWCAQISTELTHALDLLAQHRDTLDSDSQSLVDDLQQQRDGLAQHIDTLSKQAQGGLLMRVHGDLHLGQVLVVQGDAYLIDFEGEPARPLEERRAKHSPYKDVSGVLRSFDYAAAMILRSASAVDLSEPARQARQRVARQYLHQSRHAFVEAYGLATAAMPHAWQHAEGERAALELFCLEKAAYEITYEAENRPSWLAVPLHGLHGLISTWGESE

| SMILES | Inhibition of activity [1] | Inhibition of activity [2] |
| --- | --- | --- |
| [Hg+2] [Hg^++] | inhibited; also recorded: inhibitory | inhibited; also recorded: inhibitory |
| [Cu+2] [Cu^++] | inhibited; also recorded: inhibitory | inhibited; also recorded: inhibitory |
| NC(CO)(CO)CO [Tris-HCl buffer] | inhibited; also recorded: inhibitory | inhibited; also recorded: inhibitory |
